According to patent publication US12344606B2, “Next-generation modulators of stimulator of interferon genes (STING)” (RYVU THERAPEUTICS S.A., priority 2019, dated 2025):

Experiments:
human STING = human STING (Homo sapiens, UniProt Q86WV6); assay: Fluorescence Thermal Shift assay (hSTING FTS binding assay); settings: STING 0.1 mg/ml, 20 min preincubation, SyproOrange
Procedure: Compounds of the present invention were tested for binding to human STING in Fluorescence Thermal Shift assay. STING was preincubated with the compounds for 20 minutes in 50 mM Hepes, 150 mM NaCl, pH 7.5 in 16 μl volume, following by adding 4 μl of SyproOrange dye dilution (ThermoFisher, cat no. S-6651). Final STING concentration was 0.1 mg/ml. Thermal unfolding was performed in Real-Time PCR QuantStudio 6 Flex System (Applied Biosystems), from 25 to 99° C., with continuous ramp mode and ramp rate 0.033° C./s. The data were analyzed using Protein Thermal Shift Software (ThermoFisher).

[1] = test system: interferon regulatory factor (IRF) pathway in THP-1 dual cells; assay: THP-1 Dual reporter assay, IRF pathway (luciferase); type: cell-based; settings: Homo sapiens, THP1-Dual; 18 h stimulation, luminescence
Procedure: (§1) Compounds of the present invention were tested for their activity using THP-1 dual cells (Invivogen, cat no. thpd-nfis) allowing for simultaneous study of NF-κB pathway and the interferon regulatory factor (IRF) pathway. THP-1 dual cells contain luciferase reporter gene under the control of an ISG54 (interferon-stimulated gene) minimal promoter in conjunction with five interferon-stimulated response elements and a secreted embryonic alkaline phosphatase reporter gene under the control an IFN (interferon)-β minimal promoter fused to five copies of the NF-κB consensus transcriptional response element with three copies of the c-Rel binding site. Following 18 h of stimulation with STING agonist, medium was collected and transferred onto fresh cell culture plate. To verify activity of the IRF pathway, luminescence activity was measured with standard laboratory plate reader immediately after addition 10 μl of the medium to 50 μl (or 40 μl) of luminescence reagent (Invivogen, cat. No. rep-qlc2). To verify activity of NF-κB pathway, 20 μl (or 10 μl) of the medium was mixed with 80 μl of a detection medium (Invivogen, cat. No. rep-qb2) and incubated for 2 hours (or 1 hour) at 37° C. in a humidified atmosphere containing 5% CO2. Next, absorbance at 630 nm (or 655 nm) was recorded using standard laboratory plate reader.

[2] = test system: NF-κB pathway in THP-1 dual cells; assay: THP-1 Dual reporter assay, NF-κB pathway (SEAP); type: cell-based; settings: Homo sapiens, THP1-Dual; 18 h stimulation, absorbance; read-out: THP1 Dual EC50 (μM) NFkB
Procedure: as §1

Sequence of human STING (Q86WV6 whole entry H232R): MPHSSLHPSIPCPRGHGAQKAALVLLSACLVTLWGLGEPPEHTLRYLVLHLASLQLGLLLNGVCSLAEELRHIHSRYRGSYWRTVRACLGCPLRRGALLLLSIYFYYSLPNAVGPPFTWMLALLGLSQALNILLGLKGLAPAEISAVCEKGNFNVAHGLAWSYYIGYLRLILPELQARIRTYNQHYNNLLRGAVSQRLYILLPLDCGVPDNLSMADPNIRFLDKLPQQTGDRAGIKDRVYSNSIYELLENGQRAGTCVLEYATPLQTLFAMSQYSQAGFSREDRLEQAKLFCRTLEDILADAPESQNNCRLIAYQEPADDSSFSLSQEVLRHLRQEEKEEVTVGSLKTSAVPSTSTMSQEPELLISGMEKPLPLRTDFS

Row | hSTING FTS binding assay (ΔT C.°) (human STING) | EC50 [1] [µM] | EC50 [2] [µM] | SMILES
1 | + (ΔTm<10° C.) | ≥ 10 | ≥ 10 | CCc1cc(CN(Cc2cn(C)c3ccccc3c2=O)C2CCCN(c3cccnc3)C2)ccn1 (stereo not drawn) [Example 21, 3-({[(2-ethylpyridin-4-yl)methyl][1-(pyridin-3-yl)piperidin-3-yl]amino}methyl)-1-methyl-1,4-dihydroquinolin-4-one]
2 | ++ (ΔTm>10° C.) | ≥ 10 | ≥ 10 | Cc1cc(CN(Cc2cn(C)c3ccccc3c2=O)[C@H]2CCCN(c3cc(=O)[nH]cn3)C2)ccn1 [Example 22, 1-methyl-3-({[(2-methylpyridin-4-yl)methyl][(3S)-1-(6-oxo-1,6-dihydropyrimidin-4-yl)piperidin-3-yl]amino}methyl)-1,4-dihydroquinolin-4-one]
3 | ++ (ΔTm>10° C.) | ≤ 1 | ≤ 1 | Cc1cc(CN(Cc2cn(C)c3cc(Br)ccc3c2=O)[C@H]2CCCN(c3cccnc3)C2)ccn1 [Example 23, 7-bromo-1-methyl-3-({[(2-methylpyridin-4-yl)methyl][(3S)-1-(pyridin-3-yl)piperidin-3-yl]amino}methyl)-1,4-dihydroquinolin-4-one]
4 | + (ΔTm<10° C.) | ≥ 10 | ≥ 10 | Cc1cc(CN(Cc2cn(C)c3ccccc3c2=O)[C@@H]2CN(c3cccnc3)CC[C@H]2O)ccn1 [Example 24, 3-({[(3R,4R)-4-hydroxy-1-(pyridin-3-yl)piperidin-3-yl][(2-methylpyridin-4-yl)methyl]amino}methyl)-1-methyl-1,4-dihydroquinolin-4-one]
5 | ++ (ΔTm>10° C.) | ≤ 1 | ≤ 1 | Cc1cc(CN(Cc2cn(C)c3cc(Cl)c(F)cc3c2=O)[C@H]2CCCN(c3cccnc3)C2)ccn1 [Example 25, 7-chloro-6-fluoro-1-methyl-3-({[(2-methylpyridin-4-yl)methyl][(3S)-1-(pyridin-3-yl)piperidin-3-yl]amino}methyl)-1,4-dihydroquinolin-4-one]
6 | ++ (ΔTm>10° C.) | ≤ 1 | ≤ 1 | Cc1cc(CN(Cc2cn(C)c3ccccc3c2=O)[C@H]2C[C@H](F)CN(c3cccnc3)C2)ccn1 [Example 26, 3-({[(3S,5S)-5-fluoro-1-(pyridin-3-yl)piperidin-3-yl][(2-methylpyridin-4-yl)methyl]amino}methyl)-1-methyl-1,4-dihydroquinolin-4-one]
7 | + (ΔTm<10° C.) | ≥ 10 | ≥ 10 | Cc1cc(CN(Cc2cn(C)c3ccccc3c2=O)[C@H]2C[C@@H](C)CN(c3cccnc3)C2)ccn1 [Example 27, 1-methyl-3-({[(3S,5R)-5-methyl-1-(pyridin-3-yl)piperidin-3-yl][(2-methylpyridin-4-yl)methyl]amino}methyl)-1,4-dihydroquinolin-4-one]
8 | ++ (ΔTm>10° C.) | ≤ 1 | ≤ 1 | COc1cc(CN(Cc2cn(C3CC3)c3cc(Cl)c(F)cc3c2=O)[C@H]2CCCN(c3cccnc3)C2)ccn1 [Example 28, 7-chloro-1-cyclopropyl-6-fluoro-3-({[(2-methoxypyridin-4-yl)methyl][(3S)-1-(pyridin-3-yl)piperidin-3-yl]amino}methyl)-1,4-dihydroquinolin-4-one]
9 | ++ (ΔTm>10° C.) | ≤ 1 | ≤ 1 | COC(=O)C1CCN(c2ccc3c(=O)c(CN(Cc4ccnc(C)c4)[C@H]4CCCN(c5cccnc5)C4)cn(C)c3c2)CC1 [Example 29, Methyl 1-[1-methyl-3-({[(2-methylpyridin-4-yl)methyl][(3S)-1-(pyridin-3-yl)piperidin-3-yl]amino}methyl)-4-oxo-1,4-dihydroquinolin-7-yl]piperidine-4-carboxylate]
10 | + (ΔTm<10° C.) | ≥ 10 | ≥ 10 | Cc1cc(CN(Cc2cn(C)c3ccccc3c2=O)[C@H]2CCCN(c3cc[nH]c(=O)c3)C2)ccn1 [Example 30, 1-methyl-3-({[(2-methylpyridin-4-yl)methyl][(3S)-1-(2-oxo-1,2-dihydropyridin-4-yl)piperidin-3-yl]amino}methyl)-1,4-dihydroquinolin-4-one]
11 | ++ (ΔTm>10° C.) | ≤ 1 | ≤ 1 | COc1cc(CN(Cc2cn(C3CC3)c3cc(F)c(F)cc3c2=O)[C@H]2CCCN(c3ccc(C)nc3)C2)ccn1 [Example 31, 1-cyclopropyl-6,7-difluoro-3-({[(2-methoxypyridin-4-yl)methyl][(3S)-1-(6-methylpyridin-3-yl)piperidin-3-yl]amino}methyl)-1,4-dihydroquinolin-4-one]
12 | + (ΔTm<10° C.) | 1 to 10 | 1 to 10 | Cc1cc(CN(Cc2cn(C)c3ccccc3c2=O)[C@H]2CCCN(c3ncc(Br)cn3)C2)ccn1 [Example 32, 3-({[(3S)-1-(5-bromopyrimidin-2-yl)piperidin-3-yl][(2-methylpyridin-4-yl)methyl]amino}methyl)-1-methyl-1,4-dihydroquinolin-4-one]
13 | + (ΔTm<10° C.) | ≥ 10 | ≥ 10 | Cc1cc(CN(Cc2cn(C)c3ccccc3c2=O)C2CN(c3cccnc3)CC(F)(F)C2)ccn1 (stereo not drawn) [Example 34, 3-({[5,5-difluoro-1-(pyridin-3-yl)piperidin-3-yl][(2-methylpyridin-4-yl)methyl]amino}methyl)-1-methyl-1,4-dihydroquinolin-4-one]
14 | ++ (ΔTm>10° C.) | ≤ 1 | 1 to 10 | Cc1cc(CN(Cc2c[nH]c3ccccc3c2=O)[C@H]2CCCN(c3cccnc3)C2)ccn1 [Example 35, 3-({[(2-methylpyridin-4-yl)methyl][(3S)-1-(pyridin-3-yl)piperidin-3-yl]amino}methyl)-1,4-dihydroquinolin-4-one]
15 | + (ΔTm<10° C.) | ≥ 10 | ≥ 10 | Cc1cc(CN(Cc2cn(C)c3ccccc3c2=O)[C@H]2CCCN(c3cccnc3[N+](=O)[O-])C2)ccn1 [Example 36, 1-methyl-3-({[(2-methylpyridin-4-yl)methyl][(3S)-1-(2-nitropyridin-3-yl)piperidin-3-yl]amino}methyl)-1,4-dihydroquinolin-4-one]
16 | ++ (ΔTm>10° C.) | ≤ 1 | ≤ 1 | Cc1ccc(N2CCC[C@H](N(Cc3ccnc(C)c3)Cc3cn(C)c4cc(Br)ccc4c3=O)C2)cn1 [Example 37, 7-bromo-1-methyl-3-({[(3S)-1-(6-methylpyridin-3-yl)piperidin-3-yl][(2-methylpyridin-4-yl)methyl]amino}methyl)-1,4-dihydroquinolin-4-one]
17 | + (ΔTm<10° C.) | ≥ 10 | ≥ 10 | Cc1cc(CN(Cc2cn(C)c3ccccc3c2=O)[C@H]2CCCN(c3cccnc3)C2)cc(C)n1 [Example 38, 3-({[(2,6-dimethylpyridin-4-yl)methyl][(3S)-1-(pyridine-3-yl)piperidin-3-yl]amino}methyl)-1-methyl-1,4-dihydroquinolin-4-one]
18 | ++ (ΔTm>10° C.) | ≤ 1 | 1 to 10 | Cn1cc(CN(Cc2ccncc2)[C@H]2CCCN(c3cccnc3)C2)c(=O)c2ccccc21 [Example 39, 1-methyl-3-({[(3S)-1-(pyridin-3-yl)piperidin-3-yl][(pyridin-4-yl)methyl]amino}methyl)-1,4-dihydroquinolin-4-one]
19 | ++ (ΔTm>10° C.) | ≤ 1 | ≤ 1 | Cc1ccc(N2CCC[C@H](N(Cc3ccnc(C)c3)Cc3cn(C4CC4)c4cc(Cl)c(F)cc4c3=O)C2)cn1 [Example 40, 7-chloro-1-cyclopropyl-6-fluoro-3-({[(3S)-1-(6-methylpyridin-3-yl)piperidin-3-yl][(2-methylpyridin-4-yl)methyl]amino}methyl)-1,4-dihydroquinolin-4-one]
20 | + (ΔTm<10° C.) | ≥ 10 | ≥ 10 | Cc1cc(CN(Cc2cn(C)c3ccccc3c2=O)[C@H]2CCCN(c3ccn(C)c(=O)c3)C2)ccn1 [Example 41, 1-methyl-3-({[(3S)-1-(1-methyl-2-oxo-1,2-dihydropyridin-4-yl)piperidin-3-yl][(2-methylpyridin-4-yl)methyl]amino}methyl)-1,4-dihydroquinolin-4-one]
